Blank lines part the entries; values can stand above or below the compound they belong to.
Assays:
Plasminogen [1] = target: T1, Plasminogen (Homo sapiens, UniProt P00747); experiment: Rate constant of acylation on plasmin was determined at 0 percent and at 95 minutes for maximum inhibition and no enzyme activity was recovered over the 2 h-time
Plasminogen [2] = target: T1, Plasminogen; experiment: Specificity constant on plasmin was determined at 0 percent and at 95 minutes for maximum inhibition and no enzyme activity was recovered over the 2 h-time
Plasminogen [3] = target: T1, Plasminogen; experiment: Binding constant on plasmin was determined at 0 percent and at 95 minutes for maximum inhibition and no enzyme activity was recovered over the 2 h-time
[4] = target: T2, Urokinase-type plasminogen activator (Homo sapiens, UniProt P00749); experiment: Binding constant on Urokinase-type plasminogen activator was determined at 0 percent and at 98 minutes for maximum inhibition and no enzyme activity was recovered over the 2 h-time
Prothrombin [5] = target: T3, Prothrombin (Homo sapiens, UniProt P00734); experiment: Binding constant on thrombin was determined at 0 percent and at 93 minutes for maximum inhibition and no enzyme activity was recovered over the 2 h-time
Prothrombin [6] = target: T3, Prothrombin; experiment: Rate constant of acylation on thrombin was determined at 0 percent and at 93 minutes for maximum inhibition and no enzyme activity was recovered over the 2 h-time
Prothrombin [7] = target: T3, Prothrombin; experiment: Specificity constant on thrombin was determined at 0 percent and at 93 minutes for maximum inhibition and no enzyme activity was recovered over the 2 h-time
[8] = target: Chymotrypsinogen A (Bos taurus) (UniProt P00766); experiment: Specificity constant on alpha-chymotrypsin was determined at 15 percent and at 78 minutes for maximum inhibition and no enzyme activity was recovered over the 2 h-time
[9] = target: T2, Urokinase-type plasminogen activator; experiment: Rate constant of acylation on Urokinase-type plasminogen activator […] was determined at 0 percent and at 98 minutes for maximum inhibition and no enzyme activity was recovered over the 2 h-time
[10] = target: T2, Urokinase-type plasminogen activator; experiment: Specificity constant on Urokinase-type plasminogen activator was determined at 0 percent and at 98 minutes for maximum inhibition and no enzyme activity was recovered over the 2 h-time
[11] = target: Chymotrypsinogen A (Bos taurus) (UniProt P00766); experiment: Binding constant on alpha-chymotrypsin was determined at 15 percent and at 78 minutes for maximum inhibition and no enzyme activity was recovered over the 2 h-time
[12] = target: Chymotrypsinogen A (Bos taurus) (UniProt P00766); experiment: Rate constant of acylation on alpha-chymotrypsin was determined at 15 percent and at 78 minutes for maximum inhibition and no enzyme activity was recovered over the 2 h-time
[13] = target: T4, Neutrophil elastase (Homo sapiens) (UniProt P08246); experiment: Specificity constant on human neutrophil elastase was determined at 48 percent and at 60 minutes for maximum inhibition and with 0 minutes persistence of inhibition
T4 sequence (whole entry): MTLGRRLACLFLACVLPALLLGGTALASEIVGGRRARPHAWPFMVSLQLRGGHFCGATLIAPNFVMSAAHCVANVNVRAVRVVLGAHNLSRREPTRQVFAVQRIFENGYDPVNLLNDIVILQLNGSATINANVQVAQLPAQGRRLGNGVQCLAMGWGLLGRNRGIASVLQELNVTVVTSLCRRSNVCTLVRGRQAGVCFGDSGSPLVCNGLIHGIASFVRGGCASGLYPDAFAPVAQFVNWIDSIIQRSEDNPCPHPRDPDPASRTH

[14] = target: T4, Neutrophil elastase (Homo sapiens); experiment: Rate constant of acylation on human neutrophil elastase was determined at 48 percent and at 60 minutes for maximum inhibition with 0 minutes persistence of inhibition
[15] = target: T4, Neutrophil elastase (Homo sapiens); experiment: Binding constant on human neutrophil elastase was determined at 48 percent and at 60 minutes for maximum inhibition with 0 minutes persistence of inhibition
[16] = target: T5, Chymotrypsin-like elastase family member 2A (Sus scrofa) (UniProt P08419); experiment: Rate constant of acylation on porcine pancreatic elastase was determined at 42 percent and at 55 minutes for maximum inhibition and no enzyme activity was recovered over the 2 h-time
T5 sequence (whole entry): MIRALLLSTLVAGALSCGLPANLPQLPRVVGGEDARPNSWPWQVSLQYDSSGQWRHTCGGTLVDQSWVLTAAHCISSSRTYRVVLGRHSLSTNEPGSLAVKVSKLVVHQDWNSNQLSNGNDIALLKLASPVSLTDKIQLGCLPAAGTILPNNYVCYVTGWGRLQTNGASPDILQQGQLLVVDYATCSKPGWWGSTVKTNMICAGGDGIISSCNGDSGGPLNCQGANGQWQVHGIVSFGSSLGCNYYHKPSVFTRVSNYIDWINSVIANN

[17] = target: T5, Chymotrypsin-like elastase family member 2A (Sus scrofa); experiment: Specificity constant on porcine pancreatic elastase was determined at 42 percent and at 55 minutes for maximum inhibition and no enzyme activity was recovered over the 2 h-time
[18] = target: T5, Chymotrypsin-like elastase family member 2A (Sus scrofa); experiment: Binding constant on porcine pancreatic elastase was determined at 42 percent and at 55 minutes for maximum inhibition and no enzyme activity was recovered over the 2 h-time
Plasminogen [19] = target: T1, Plasminogen; experiment: Rate constant of deacylation for plasmin; Fast and could not be measured
Prothrombin [20] = target: T3, Prothrombin; experiment: Rate constant of deacylation for thrombin
[21] = target: T2, Urokinase-type plasminogen activator; experiment: Rate constant of deacylation for Urokinase-type plasminogen activator
Plasminogen [22] = target: T1, Plasminogen
Plasminogen [23] = target: T1, Plasminogen; remark: listed apart in the source
Plasminogen [24] = target: T1, Plasminogen; remark: listed apart in the source
Description: Binding constant on plasmin was determined at 30 percent and at 82 minutes for maximum inhibition and no enzyme activity was recovered over the 2 h-time

[25] = target: T2, Urokinase-type plasminogen activator
Prothrombin [26] = target: T3, Prothrombin
Prothrombin [27] = target: T3, Prothrombin; remark: listed apart in the source
Prothrombin [28] = target: T3, Prothrombin; remark: listed apart in the source
[29] = target: T2, Urokinase-type plasminogen activator; remark: listed apart in the source
[30] = target: T2, Urokinase-type plasminogen activator; remark: listed apart in the source
Description: Specificity constant on Urokinase-type plasminogen activator was determined at 0 percent and at 91 minutes for maximum inhibition and no enzyme activity was recovered over the 2 h-time

[31] = target: T4, Neutrophil elastase (Homo sapiens); experiment: Specificity constant on human neutrophil elastase was determined at 30 percent and at 35 minutes for maximum inhibition with 0 minutes persistence of inhibition
[32] = target: T4, Neutrophil elastase (Homo sapiens); experiment: Rate constant of acylation on human neutrophil elastase was determined at 30 percent and at 35 minutes for maximum inhibition with 0 minutes persistence of inhibition
[33] = target: T4, Neutrophil elastase (Homo sapiens); experiment: Binding constant on human neutrophil elastase was determined at 30 percent and at 35 minutes for maximum inhibition with 0 minutes persistence of inhibition
[34] = target: T5, Chymotrypsin-like elastase family member 2A (Sus scrofa); experiment: Specificity constant on porcine pancreatic elastase was determined at 10 percent and at 78 minutes for maximum inhibition and no enzyme activity was recovered over the 2 h-time
[35] = target: T5, Chymotrypsin-like elastase family member 2A (Sus scrofa); experiment: Binding constant on porcine pancreatic elastase was determined at 10 percent and at 78 minutes for maximum inhibition and no enzyme activity was recovered over the 2 h-time
[36] = target: T5, Chymotrypsin-like elastase family member 2A (Sus scrofa); experiment: Rate constant of acylation on porcine pancreatic elastase was determined at 10 percent and at 78 minutes for maximum inhibition and no enzyme activity was recovered over the 2 h-time
[37] = target: T4, Neutrophil elastase (Homo sapiens); experiment: Specificity constant on human neutrophil elastase was determined at 30 percent and at 10 minutes for maximum inhibition with 0 minutes persistence of inhibition
[38] = target: T4, Neutrophil elastase (Homo sapiens); experiment: Rate constant of acylation on human neutrophil elastase was determined at 30 percent and at 10 minutes for maximum inhibition with 0 minutes persistence of inhibition
[39] = target: T4, Neutrophil elastase (Homo sapiens); experiment: Binding constant on human neutrophil elastase was determined at 30 percent and at 10 minutes for maximum inhibition with 0 minutes persistence of inhibition
[40] = target: T5, Chymotrypsin-like elastase family member 2A (Sus scrofa); experiment: Specificity constant on porcine pancreatic elastase was determined at 10 percent and at 73 minutes for maximum inhibition and no enzyme activity was recovered over the 2 h-time
[41] = target: T5, Chymotrypsin-like elastase family member 2A (Sus scrofa); experiment: Binding constant on porcine pancreatic elastase was determined at 10 percent and at 73 minutes for maximum inhibition and no enzyme activity was recovered over the 2 h-time
[42] = target: T5, Chymotrypsin-like elastase family member 2A (Sus scrofa); experiment: Rate constant of acylation on porcine pancreatic elastase was determined at 10 percent and at 73 minutes for maximum inhibition and no enzyme activity was recovered over the 2 h-time

T1 sequence (P00747 97-580 limits assumed): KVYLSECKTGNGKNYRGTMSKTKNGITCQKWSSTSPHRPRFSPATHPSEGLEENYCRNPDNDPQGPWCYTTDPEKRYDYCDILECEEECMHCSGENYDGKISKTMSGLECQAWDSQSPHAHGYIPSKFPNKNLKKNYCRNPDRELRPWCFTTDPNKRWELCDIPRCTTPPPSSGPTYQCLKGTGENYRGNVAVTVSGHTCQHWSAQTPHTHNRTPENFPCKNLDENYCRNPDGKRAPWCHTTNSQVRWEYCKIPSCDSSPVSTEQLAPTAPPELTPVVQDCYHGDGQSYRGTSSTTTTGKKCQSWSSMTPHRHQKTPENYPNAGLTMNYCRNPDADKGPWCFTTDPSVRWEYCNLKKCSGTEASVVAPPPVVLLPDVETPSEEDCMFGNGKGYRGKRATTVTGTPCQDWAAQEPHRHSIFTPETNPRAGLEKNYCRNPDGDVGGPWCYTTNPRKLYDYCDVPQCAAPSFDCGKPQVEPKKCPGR
T1 sequence (P00747 581-810 limits assumed): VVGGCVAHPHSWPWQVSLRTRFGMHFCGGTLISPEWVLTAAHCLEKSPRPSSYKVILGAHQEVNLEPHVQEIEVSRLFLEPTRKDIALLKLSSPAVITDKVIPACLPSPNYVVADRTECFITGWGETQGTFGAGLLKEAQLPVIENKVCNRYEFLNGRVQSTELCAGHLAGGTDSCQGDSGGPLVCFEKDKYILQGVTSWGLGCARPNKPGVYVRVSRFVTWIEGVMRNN

ka (Plasminogen [1]): 13.6 min⁻¹ | ka/Ki (Plasminogen [2]): 7.55e+06 M⁻¹ s⁻¹ | Ks/i (Plasminogen [3]): 0.03 µM | Ks/i [4]: 0.16 µM | Ks/i (Prothrombin [5]): 0.93 µM | ka (Prothrombin [6]): 12.9 min⁻¹ | ka/Ki (Prothrombin [7]): 233000 M⁻¹ s⁻¹ | ka/Ki [8]: 50000 M⁻¹ s⁻¹ | ka [9]: 18.6 min⁻¹ | ka/Ki [10]: 1.95e+06 M⁻¹ s⁻¹ | Ks/i [11]: 2.4 µM | ka [12]: 7.22 min⁻¹
SMILES: N=C(N)Nc1ccc(C2CC/C(=C\I)OC2=O)cc1 (configuration not stated)

ka/Ki [37]: 500 M⁻¹ s⁻¹ | ka [38]: 0.6 min⁻¹ | Ks/i [39]: 22.7 µM | ka/Ki [40]: 167 M⁻¹ s⁻¹ | Ks/i [41]: 393 µM | ka [42]: 4.47 min⁻¹
SMILES: C=C1CC(C)CC(=O)O1 (configuration not stated)

The next lines start with the compound.

SMILES: C=C1CC(C)(C)CC(=O)O1
ka/Ki [13]: 333 M⁻¹ s⁻¹ | ka [14]: 0.77 min⁻¹ | Ks/i [15]: 43.3 µM | ka [16]: 0.51 min⁻¹ | ka/Ki [17]: 83.3 M⁻¹ s⁻¹ | Ks/i [18]: 104 µM

SMILES: C=C1CCC(c2ccc(CNC(=N)N)cc2)C(=O)O1 (configuration not stated)
Kd (Plasminogen [19]): Not measurable | Kd (Prothrombin [20]): 0.0001 s⁻¹ | Kd [21]: 0.000733 s⁻¹ | ka/Ki (Plasminogen [22]): 2000 M⁻¹ s⁻¹ | ka (Plasminogen [23]): 57 min⁻¹ | Ks/i (Plasminogen [24]): 466 µM | Ks/i [25]: 0.35 µM | Ks/i (Prothrombin [26]): 37.9 µM | ka (Prothrombin [27]): 5.58 min⁻¹ | ka/Ki (Prothrombin [28]): 2500 M⁻¹ s⁻¹ | ka [29]: 9.8 min⁻¹ | ka/Ki [30]: 467000 M⁻¹ s⁻¹

SMILES: CC1CC(=O)O/C(=C/Br)C1 (configuration not stated)
ka/Ki [31]: 333 M⁻¹ s⁻¹ | ka [32]: 0.48 min⁻¹ | Ks/i [33]: 22.6 µM | ka/Ki [34]: 16.7 M⁻¹ s⁻¹ | Ks/i [35]: 216 µM | ka [36]: 0.33 min⁻¹

Reference: ChEMBL document CHEMBL1126229, “Enol lactone derivatives as inhibitors of human neutrophil elastase and trypsin-like proteases” (Bioorg Med Chem Lett, 1992)
